In general, IC50 refers to the concentration that inhibits the measured activity by half.

Our source for the IC50 values is patent US9862711B2, “Pyrazine derivatives as phosphatidylinositol 3-kinase inhibitors” (NOVARTIS AG, priority 2014, dated 2018).

For the test, the target named is PI 3-kinase gamma (Homo sapiens (Human), UniProt P48736). The test can be described thus: TR-FRET Adapta assay (Assay E). The class given is biochemical. As to conditions: read-out: Assay E PI3Kγ IC50. An excerpt:
TR-FRET Adapta Assay for PI 3-Kinase Gamma (E), PI 3-Kinase Delta (F)
The TR-FRET Adapta™ Universal Kinase Assay Kit was purchased from Invitrogen Corporation (Carlsbad/CA, USA) (Cat. No. PV5099). The kit contains the following reagents: Adapta Eu-anti-ADP Antibody (Europium labeled anti-ADP antibody in HEPES buffered saline, Cat. No. PV5097), Alexa Fluor® 647-labeled ADP tracer (Alexa Fluor® 647-labeled ADP tracer in HEPES buffered saline, Cat. No. PV5098), TR-FRET dilution buffer pH 7.5 (Cat. No. PV3574). PIK3CD substrate phosphatidylinositol (PI) was obtained from Invitrogen (vesicules consisting of 2 mM phosphatidylinositol (PI) in 50 mM HEPES pH7.5; Cat. No. PV5371). PIK3CG substrate phosphatidylinositol-4,5-bisphosphate (PIP(4,5)2 was obtained from Invitrogen (PIP2:PS large unilamellar vesicules consisting of 1 mM PIP2: 19 mM PS in 50 mM HEPES pH7.5, 3 mM MgCl2, 1 mM EGTA; Cat. No. PV5100).
Time-Resolved Fluorescence Resonance Energy Transfer (TR-FRET) is a technology based on energy transfer between two adjacent dyes, from an excited electron in one dye (the donor) to an electron of an adjacent dye (the acceptor) through resonance, then released as a photon. This energy transfer is detected by an increase in the fluorescence emission of the acceptor, and a decrease in the fluorescence emission of the donor. TR-FRET assays for protein kinases use a long-lifetime lanthanide Terbium or Europium chelates as the donor species which overcome interference from compound autofluorescence or light scatter from precipitated compounds, by introducing a delay after excitation by a flashlamp excitation source. Results are often expressed as a ratio of the intensities of the acceptor and donor fluorophores. The ratiometric nature of such a value corrects for differences in assay volumes between wells, as well as corrects for quenching effects due to colored compounds. The Adapta™ assay can be divided into two phases: a kinase reaction phase and an ADP detection phase. In the kinase reaction phase, all kinase reaction components are added to the well and the reaction is allowed to incubate for a set period of time specific for each kinase. After the reaction, a detection solution of Eu-labeled anti-ADP antibody, Alexa Fluor® 647-labeled ADP tracer, and EDTA (to stop the kinase reaction) are added to the assay well. ADP formed by the kinase reaction will displace the Alexa Fluor® 647-labeled ADP tracer from the antibody, resulting in a decrease in TR-FRET signal. In the presence of an inhibitor, the amount of ADP formed by the kinase reaction is reduced, and the resulting intact antibodytracer interaction maintains a high TR-FRET signal. In the Adapta™ assay, the donor (Europium-anti-ADP antibody) is excited at 340 nm and will transfer its energy to the acceptor (Alexa Fluor® 647-labeled ADP tracer). The emission from the Alexa Fluor® 647 can be monitored with a filter centered at 665 nm because it is located between the emission peaks of the donor, which is measured at 615/620 nm. 50 nL of compound dilutions were dispensed onto white 384-well small volume polystyrene plate. Then 5 μL of either PI 3-kinase gamma or PI 3-kinase delta and lipid substrate (P1 or PIP2:PS) followed by 5 μL of ATP (final assay volume 10 μL) are incubated at RT. The standard reaction buffer for the Adapta™ TR-FRET assay contained 10 mM Tris-HCl pH 7.5, 3 mM MgCl2, 50 mM NaCl, 1 mM DTT, 0.05% CHAPS ((3-[(3-cholamidopropyl)dimethylammonio]-1-propanesulfonate). Reactions were stopped with 5 μL of a mixture of EDTA containing the Eu-labeled anti-ADP antibody and the Alexa Fluor® 647-labeled ADP tracer in TR-FRET dilution buffer. Plates are read 15 to 60 mins later in a Synergy2 reader using an integration time of 0.4 seconds and a delay of 0.05 seconds. Control for the 100% inhibition of the kinase reaction was performed by replacing the PI 3-kinase by the standard reaction buffer. […]
In general terms: TR-FRET usually uses a lanthanide donor and a delayed reading to cut background.

PI 3-kinase gamma, sequence (P48736 whole entry): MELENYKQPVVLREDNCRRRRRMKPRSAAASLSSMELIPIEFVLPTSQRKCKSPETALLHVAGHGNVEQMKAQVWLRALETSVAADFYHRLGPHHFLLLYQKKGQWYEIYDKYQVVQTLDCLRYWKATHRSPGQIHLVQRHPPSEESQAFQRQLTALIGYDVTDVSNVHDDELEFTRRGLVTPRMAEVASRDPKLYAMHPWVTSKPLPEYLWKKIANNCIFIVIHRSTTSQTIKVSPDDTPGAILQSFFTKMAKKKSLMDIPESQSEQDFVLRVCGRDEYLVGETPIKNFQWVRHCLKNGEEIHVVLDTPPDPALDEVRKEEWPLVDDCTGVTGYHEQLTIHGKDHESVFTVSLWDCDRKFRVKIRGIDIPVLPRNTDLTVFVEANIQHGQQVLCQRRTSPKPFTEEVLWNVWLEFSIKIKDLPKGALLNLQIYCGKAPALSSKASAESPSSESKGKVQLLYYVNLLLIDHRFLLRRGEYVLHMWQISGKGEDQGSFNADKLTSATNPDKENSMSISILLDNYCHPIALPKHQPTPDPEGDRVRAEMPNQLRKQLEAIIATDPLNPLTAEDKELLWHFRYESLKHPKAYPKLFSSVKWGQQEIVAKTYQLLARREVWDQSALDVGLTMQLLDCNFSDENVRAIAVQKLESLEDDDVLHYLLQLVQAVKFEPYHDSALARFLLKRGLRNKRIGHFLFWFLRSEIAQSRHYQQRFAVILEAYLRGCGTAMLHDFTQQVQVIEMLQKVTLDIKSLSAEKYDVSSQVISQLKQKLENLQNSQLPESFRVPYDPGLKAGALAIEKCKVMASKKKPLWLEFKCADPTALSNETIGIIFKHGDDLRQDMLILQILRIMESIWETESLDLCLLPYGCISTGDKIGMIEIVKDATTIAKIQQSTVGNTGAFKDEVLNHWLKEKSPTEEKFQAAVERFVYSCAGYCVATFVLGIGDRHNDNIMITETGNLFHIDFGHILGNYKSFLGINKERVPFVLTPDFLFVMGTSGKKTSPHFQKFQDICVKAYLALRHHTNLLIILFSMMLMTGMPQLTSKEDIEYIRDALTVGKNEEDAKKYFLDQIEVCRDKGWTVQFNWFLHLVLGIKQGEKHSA

`Cc1ncc(-c2cncc(-c3cc(S(=O)(=O)NCCCO)ccc3C)n2)s1` [Example 1, N-(3-Hydroxy-propyl)-4-methyl-3-[6-(2-methyl-thiazol-5-yl)-pyrazin-2-yl]-benzenesulfonamide]: the IC50 turned out to be 22 nM.
Regarding `Cc1ccc(S(=O)(=O)NCC(C)(C)O)cc1-c1cncc(-c2cn(C)nc2C)n1` [Example 2, 3-[6-(1,3-Dimethyl-1H-pyrazol-4-yl)-pyrazin-2-yl]-N-(2-hydroxy-2-methyl-propyl)-4-methyl-benzenesulfonamide], the IC50 came to 19 nM.
`Cc1ccc(S(=O)(=O)NCCC(C)(C)O)cc1-c1cncc(-c2cn(C)nc2C)n1` [Example 3, 3-[6-(1,3-Dimethyl-1H-pyrazol-4-yl)-pyrazin-2-yl]-N-(3-hydroxy-3-methyl-butyl)-4-methyl-benzenesulfonamide]: the half-maximal inhibitory concentration (IC50) came to 48 nM.
Turning to `Cc1ccc(S(=O)(=O)NCC2(C)COC2)cc1-c1cncc(-c2cn(C)nc2C)n1` [Example 4, Trans 3-[6-(1,3-Dimethyl-1H-pyrazol-4-yl)-pyrazin-2-yl]-4-methyl-N-(3-methyl-oxetan-3-ylmethyl)-benzenesulfonamide], the IC50 stood at 14 nM.
`Cc1ncc(-c2cncc(-c3cc(S(=O)(=O)N[C@H]4CC[C@H](O)CC4)ccc3C)n2)s1` [Example 5, Trans N-(4-Hydroxycyclohexyl)-4-methyl-3-(6-(2-methylthiazol-5-yl)pyrazin-2-yl)benzenesulfonamide]: the IC50 was 15 nM.
The same measure for `Cc1ccc(S(=O)(=O)NCC(C)(C)CO)cc1-c1cncc(-c2cn(C)nc2C)n1` [Example 8, 3-[6-(1,3-Dimethyl-1H-pyrazol-4-yl)-pyrazin-2-yl]-N-(3-hydroxy-2,2-dimethyl-propyl)-4-methyl-benzenesulfonamide]: 20 nM.
The same measure for `Cc1ccc(S(=O)(=O)NCCC(C)(C)O)cc1-c1cncc(-c2cnn(CCN3CCOCC3)c2)n1` [Example 9, N-(3-Hydroxy-3-methyl-butyl)-4-methyl-3-{6-[1-(2-morpholin-4-yl-ethyl)-1H-pyrazol-4-yl]-pyrazin-2-yl}-benzenesulfonamide]: 160 nM; for `Cc1ccc(S(=O)(=O)NCCC(C)(C)O)cc1-c1cncc(-c2cn(CCN3CCOCC3)nc2C)n1` [Example 10, N-(3-Hydroxy-3-methyl-butyl)-4-methyl-3-{6-[3-methyl-1-(2-morpholin-4-yl-ethyl)-1H-pyrazol-4-yl]-pyrazin-2-yl}-benzenesulfonamide]: 27 nM; for `Cc1ccc(S(=O)(=O)N[C@H]2CC[C@H](O)CC2)cc1-c1cncc(-c2cccnc2)n1` [Example 11, Trans N-(4-Hydroxy-cyclohexyl)-4-methyl-3-(6-pyridin-3-yl-pyrazin-2-yl)-benzenesulfonamide]: 88 nM.
